The values below come from patent publication US7964531B2, “3-phenoxy-4-pyridazinol derivatives and herbicidal composition containing the same” (Mitsui Chemicals Agro, Inc., priority 2001, dated 2011).

Structures can show the parent of a compound that is named as a salt.

The melting point is the temperature, or range, at which the solid turns liquid. Molecule `CCc1ccccc1Oc1nnc(Cl)cc1O` [Compound No. 130, 6-Chloro-3-(2-ethylphenoxy)-4-pyridazinol] yielded a melting point of 217 to 218 °C.

In turn, `CCOc1cccc(C2CC2)c1Oc1nnc(Cl)cc1O` [Compound No. 965, 6-Chloro-3-(2-cyclopropyl-6-ethoxyphenoxy)-4-pyridazinol] displayed a melting point of 174 to 179 °C.

As to `COc1ccc(C)c(Oc2nnc(Cl)cc2O)c1` [Compound No. 629, 6-Chloro-3-(5-methoxy-2-methylphenoxy)-4-pyridazinol], the melting point lay in the range of 170 to 172 °C.

In turn, `CN(C)S(=O)(=O)n1nccc1-c1ccccc1Oc1nnc(Cl)cc1O` [Compound No. 369, 5-{2-[(6-Chloro-4-hydroxy-3-pyridazinyl)oxy]phenyl}N,N-dimethyl-1H-pyrazole-1-sulfonamide] registered a melting point of 151 to 152 °C.

With `Cc1ccc(C(=O)Oc2cc(Cl)nnc2Oc2ccccc2C)cc1` [Compound No. 1553, 6-Chloro-3-(2-methylphenoxy)-4-pyridazinyl 4-methylbenzoate], the melting point lay within 105 to 108 °C.

Molecule `Cc1ccc(S(=O)(=O)Oc2cc(Cl)nnc2Oc2ccc(Cl)cc2C)cc1` [Compound No. 2246, 6-Chloro-3-(4-chloro-2-methylphenoxy)-4-pyridazinyl 4-methylbenzenesulfonate] came in with a melting point of 115 to 116 °C.

Molecule `Oc1cc(Cl)nnc1Oc1ccccc1C1CCC1` [Compound No. 284, 6-Chloro-3-(2-cyclobutylphenoxy)-4-pyridazinol] displayed a melting point of 188 to 189 °C.

`Cc1cccc(C2CC2)c1Oc1nnc(Cl)cc1OC(=O)C(C)(C)Br` [Compound No. 2697, 6-Chloro-3-(2-cyclopropyl-6-methylphenoxy)-4-pyridazinyl 2-bromo-2-methylpropanoate] yielded a melting point of 69 to 71 °C.

Consider `CCc1cc(I)ccc1Oc1nnc(Cl)cc1O` [Compound No. 562, 6-Chloro-3-(2-ethyl-4-iodophenoxy)-4-pyridazinol], for which the melting point was 199 to 201 °C.

Take `CC(C)Sc1ccccc1Oc1nnc(Cl)cc1O` [Compound No. 403, 6-Chloro-3-[2-(isopropylsulfanyl)phenoxy]-4-pyridazinol]: the melting point lay in the range of 176 to 177 °C.

In turn, `N#C/C=C/c1ccccc1Oc1nnc(Cl)cc1O` [Compound No. 306, (2E)-3-{2-[(6-Chloro-4-hydroxy-3-pyridazinyl)oxy]phenyl}acrylonitrile] came in with a melting point of 190 to 192 °C.

As to `Cc1ccc2c(c1Oc1nnc(Cl)cc1O)CCC2` [Compound No. 1088, 6-Chloro-3-[(5-methyl-2,3-dihydro-1H-inden-4-yl)oxy]-4-pyridazinol], the melting point was in the range of 222 to 225 °C.

Regarding `CC(C)c1ccccc1Oc1nnccc1O` [Compound No. 6, 3-(2-Isopropylphenoxy)-4-pyridazinol], the melting point fell in the range of 181.5 to 182 °C.

As for `CC1(C)Cc2cccc(Oc3nnc(Cl)cc3O)c2O1` [Compound No. 540, 6-Chloro-3-[(2,2-dimethyl-2,3-dihydro-1-benzofuran-7-yl)oxy]-4-pyridazinol], the melting point is 228 to 229.5 °C.

Take `Cc1ccc(C2CC2)c(Oc2nnc(Cl)cc2O)c1C` [Compound No. 1061, 6-Chloro-3-(6-cyclopropyl-2,3-dimethylphenoxy)-4-pyridazinol]: the melting point is 229 to 234 °C.

`Cc1ccccc1Oc1nnc(Cl)cc1OS(=O)(=O)c1ccc(Cl)cc1` [Compound No. 2198, 6-Chloro-3-(2-methylphenoxy)-4-pyridazinyl 4-chlorobenzenesulfonate]: the melting point was in the range of 93 to 94 °C.

Regarding `Cc1ccc(C(C)C)c(Oc2nnc(Cl)cc2O)c1` [Compound No. 640, 6-Chloro-3-(2-isopropyl-5-methylphenoxy)-4-pyridazinol], the melting point was 193 to 195 °C.

On to `COc1cccc(C2CC2)c1Oc1nnc(Cl)cc1O` [Compound No. 964, 6-Chloro-3-(2-cyclopropyl-6-methoxyphenoxy)-4-pyridazinol], for which the melting point fell in the range of 194 to 199 °C.

Regarding `CC1(C)Cc2c(Oc3nnc(Cl)cc3O)cccc21` [Compound No. 2556, 6-Chloro-3-[(7,7-dimethylbicyclo[4.2.0]octa-1,3,5-trien-2-yl)oxy]-4-pyridazinol], the melting point was in the range of 197 to 199 °C.

`C[Si](C)(C)c1ccc(Oc2nnc(Cl)cc2OC(=O)c2ccccc2)cc1` yielded a melting point of 100 to 102 °C.

`Cc1cc(C)c([N+](=O)[O-])c(Oc2nnc(Cl)cc2O)c1C` [Compound No. 2608, 6-Chloro-3-(2,3,5-trimethyl-6-nitrophenoxy)-4-pyridazinol] came in with a melting point of 172 to 174 °C.

As to `Cc1cc(C)cc(C(=O)Oc2cc(Cl)nnc2Oc2c(C)cccc2C2CC2)c1` [Compound No. 3243, 6-Chloro-3-(2-cyclopropyl-6-methylphenoxy)-4-pyridazinyl 3,5-dimethylbenzoate], the melting point fell in the range of 117 to 119 °C.

Take `Cc1cc(C)cc(Oc2nnc(Cl)cc2O)c1` [Compound No. 998, 6-Chloro-3-(3,5-dimethylphenoxy)-4-pyridazinol]: the melting point lay within 178 to 182 °C.

In the case of `Cc1cccc(C2CC2)c1Oc1nnc(Cl)cc1OC(=O)c1cc(Cl)ccc1Cl` [Compound No. 3100, 6-Chloro-3-(2-cyclopropyl-6-methylphenoxy)-4-pyridazinyl 2,5-dichlorobenzoate], the melting point was in the range of 128 to 130 °C.

Consider `CC(C)c1cc(Br)ccc1Oc1nnc(Cl)cc1O` [Compound No. 566, 3-(4-Bromo-2-isopropylphenoxy)-6-chloro-4-pyridazinol], for which the melting point is 215 to 225 °C.

With `Cc1cccc(C2CC2)c1Oc1nnc(Cl)cc1OC(=O)c1ccc(C(C)(C)C)cc1` [Compound No. 1575, 6-Chloro-3-(2-cyclopropyl-6-methylphenoxy)-4-pyridazinyl 4-tert-butylbenzoate], the melting point lay in the range of 139 to 142 °C.

Molecule `Oc1ccccc1Oc1nnc(Cl)cc1O` [Compound No. 384, 6-Chloro-3-(2-hydroxyphenoxy)-4-pyridazinol] yielded a melting point of 216 to 219 °C.

Turning to `Cc1cc2c(c(Oc3nnc(Cl)cc3O)c1C)CCC2` [Compound No. 1129, 6-Chloro-3-[(5,6-dimethyl-2,3-dihydro-1H-inden-4-yl)oxy]-4-pyridazinol], the melting point was in the range of 210 to 213 °C.

Consider `Oc1cc(Cl)nnc1Oc1ccccc1C1OCCO1` [Compound No. 329, 6-Chloro-3-[2-(1,3-dioxolan-2-yl)phenoxy]-4-pyridazinol], for which the melting point is 143 to 145 °C.

Molecule `COc1cccc(Br)c1Oc1nnc(Cl)cc1O` [Compound No. 778, 3-(2-Bromo-6-methoxyphenoxy)-6-chloro-4-pyridazinol] showed a melting point of 220 to 221 °C.

`CC(C)c1cccc([N+](=O)[O-])c1Oc1nnc(Cl)cc1O` [Compound No. 911, 6-Chloro-3-(2-isopropyl-6-nitrophenoxy)-4-pyridazinol]: the melting point lay in the range of 205 to 209 °C.

Consider `O=S(=O)(Oc1cc(Cl)nnc1Oc1ccccc1C1CC1)C(F)(F)F` (as salt: methanesulfonate) [Compound No. 2081, 6-Chloro-3-(2-cyclopropylphenoxy)-4-pyridazinyl trifluoromethanesulfonate], for which the melting point was in the range of 54 to 61 °C.

Regarding `Oc1cc(Cl)nnc1Oc1ccccc1-c1ccsc1` [Compound No. 361, 6-Chloro-3-[2-(3-thienyl)phenoxy]-4-pyridazinol], the melting point lay within 207 to 209 °C.

Take `O=Cc1cccc(Oc2nnc(Cl)cc2O)c1` [Compound No. 421, 3-[(6-Chloro-4-hydroxy-3-pyridazinyl)oxy]benzaldehyde]: the melting point was 188 to 192 °C.

For the molecule `Cc1c([N+](=O)[O-])ccc(C2CC2)c1Oc1nnc(Cl)cc1O` [Compound No. 2589, 6-Chloro-3-(6-cyclopropyl-2-methyl-3-nitrophenoxy)-4-pyridazinol], the melting point is 140 to 143 °C.

Consider `Cc1cccc(C2CC2)c1Oc1nnc(Cl)cc1OC(=O)n1c2ccccc2c2ccccc21` [Compound No. 3714, 6-Chloro-3-(2-cyclopropyl-6-methylphenoxy)-4-pyridazinyl 9H-carbazole-9-carboxylate], for which the melting point is 157 to 159 °C.

`Cc1ccc(C(C)C)cc1Oc1nnc(Cl)cc1O` [Compound No. 623, 6-Chloro-3-(5-isopropyl-2-methylphenoxy)-4-pyridazinol] showed a melting point of 168 to 169 °C.

Consider `CC(=O)c1cc(O)c(Oc2ccccc2C)nn1` [Compound No. 2455, 1-[5-Hydroxy-6-(2-methylphenoxy)-3-pyridazinyl]ethanone], for which the melting point was in the range of 182 to 185 °C.

Consider `COc1ccccc1C(=O)Oc1cc(Cl)nnc1Oc1ccccc1C` [Compound No. 1509, 6-Chloro-3-(2-methylphenoxy)-4-pyridazinyl 2-methoxybenzoate], for which the melting point was in the range of 114 to 116 °C.

For the molecule `CCOCc1ccccc1Oc1nnc(Cl)cc1O` [Compound No. 325, 6-Chloro-3-[2-(ethoxymethyl)phenoxy]-4-pyridazinol], the melting point lay in the range of 173 to 174 °C.

The molecule `CC(C)c1cccc(Cl)c1Oc1nnc(Cl)cc1O` [Compound No. 738, 6-Chloro-3-(2-chloro-6-isopropylphenoxy)-4-pyridazinol] came in with a melting point of 218 to 233 °C.

On to `Oc1cc(Cl)nnc1Oc1ccccc1C1CC1(F)F` (stereo not shown) [Compound No. 264, 6-Chloro-3-[2-(2,2-difluorocyclopropyl)phenoxy]-4-pyridazinol], for which the melting point fell in the range of 215 to 216 °C.

`CC(C)(C)c1ccccc1Oc1nnc(Cl)c([Si](C)(C)C)c1O` came in with a melting point of 160 to 163 °C.

As for `Cc1cc(C)c(Oc2nnc(Cl)cc2O)c(Br)c1` [Compound No. 1119, 3-(2-Bromo-4,6-dimethylphenoxy)-6-chloro-4-pyridazinol], the melting point is 254 to 256 °C.

Molecule `Nc1ccccc1OC1(Cl)NN=CC=C1O` (stereo not shown) [Compound No. 377, 3-(2-Aminophenoxy)-3-chloro-4-pyridazinol] came in with a melting point of 249 to 250 °C.

The molecule `C/C=C/c1cccc(/C=C/C)c1Oc1nnc(Cl)cc1O` [Compound No. 979, 6-Chloro-3-{2,6-di[(1E)-1-propenyl]phenoxy}-4-pyridazinol] gave a melting point of 163 to 164 °C.
